Marks after values point to notes of the source that are not given here.
Test system: casting-induced atrophy of the tibialis anterior and medial gastrocnemius muscles
Test: mouse casting model of skeletal muscle atrophy
Type: in vivo
Details: fourteen days, casted right hind leg, male mice
Method: The role of the prostanoid IP receptor in vivo is investigated in the mouse casting model of skeletal muscle atrophy using the pharmacological agents carbaprostacyclin, ciprostene, beraprost and iloprost (Cayman Chemical Company, Ann Arbor, Mich.) which are selective agonists for the prostanoid IP receptor. Eight mice are used per treatment group in the study described. Following casting of the right hind leg, male mice are injected subcutaneously in the midscapular region once daily, with either carbaprostacyclin, ciprostene, beraprost, iloprost or vehicle control (phosphate buffered saline), for fourteen days at the daily delivered dose indicated. On day fourteen, the tibialis anterior and medial gastrocnemius muscles are removed and weighed to determine the degree of atrophy. Percent inhibition of atrophy is calculated using the following formula: [formula] Statistical significance of the results is determined using ANCOVA (Douglas C. Montgomery, Design and Analysis of Experiments, John Wiley and Sons, New York (2nd ed. 1984).

[1] = 0.3 mg/kg/d subcutaneously once daily
[2] = 1.0 mg/kg/d subcutaneously once daily
[3] = 3.0 mg/kg/d subcutaneously once daily

## CCCCC[C@H](O)/C=C/[C@@H]1[C@H]2C/C(=C/CCCC(=O)O)C[C@H]2C[C@H]1O [Carbaprostacyclin]
[1]
  % inhibition of atrophy medial gastrocnemius muscle: 1%
  % inhibition of atrophy tibialis anterior muscle: 0%
[2]
  % inhibition of atrophy medial gastrocnemius muscle: 24* %
  % inhibition of atrophy tibialis anterior muscle: 12%
[3]
  % inhibition of atrophy medial gastrocnemius muscle: 43* %
  % inhibition of atrophy tibialis anterior muscle: 8%

## CC#CCC(C)[C@H](O)/C=C/[C@@H]1[C@H]2C/C(=C/CCCC(=O)O)C[C@H]2C[C@H]1O (stereo partly drawn) [Iloprost]
[1]
  % inhibition of atrophy medial gastrocnemius muscle: 42* %
  % inhibition of atrophy tibialis anterior muscle: 18%
[2]
  % inhibition of atrophy medial gastrocnemius muscle: 36* %
  % inhibition of atrophy tibialis anterior muscle: 21* %
[3]
  % inhibition of atrophy medial gastrocnemius muscle: 31* %
  % inhibition of atrophy tibialis anterior muscle: 11%

## CCCCC[C@H](O)/C=C/[C@H]1[C@H](O)C[C@]2(C)C/C(=C\CCCC(=O)O)C[C@H]12 [Ciprostene]
[1]
  % inhibition of atrophy medial gastrocnemius muscle: 25* %
  % inhibition of atrophy tibialis anterior muscle: 5%
[2]
  % inhibition of atrophy medial gastrocnemius muscle: 20%
  % inhibition of atrophy tibialis anterior muscle: 9%
[3]
  % inhibition of atrophy medial gastrocnemius muscle: 43* %
  % inhibition of atrophy tibialis anterior muscle: 25* %

## CC#CCC(C)[C@H](O)/C=C/[C@@H]1[C@H]2c3cccc(CCCC(=O)O)c3O[C@H]2C[C@H]1O (mixture of isomers) [Beraprost]
[1]
  % inhibition of atrophy medial gastrocnemius muscle: 46* %
  % inhibition of atrophy tibialis anterior muscle: 28* %
[2]
  % inhibition of atrophy medial gastrocnemius muscle: 22%
  % inhibition of atrophy tibialis anterior muscle: 27* %
[3]
  % inhibition of atrophy medial gastrocnemius muscle: 28* %
  % inhibition of atrophy tibialis anterior muscle: 5%
